Assays:
[1] = system: BALB/c cells (primary peritoneal macrophages); test: LPS-IFN-γ-induced macrophage NO production (Griess nitrite assay), BALB/c cells; assay type: cell-based, mouse; conditions: 50 μM, 24 h; for NO release (%): relative to DMSO treated cells; for inhibition at 50 µM: Mus musculus, Peritoneal macrophage
Method: (§1) Isolation of primary mouse macrophages. Peritoneal exudate macrophages were isolated by peritoneal lavage with ice-cold sterile physiological saline 24 h after intraperitoneal injection of BALB/c and CB57BL/6 mice with 0.3 ml of sterile Zymosan A (1 mg/0.5 ml 0.9% saline). Cells were washed, resuspended in RPMI 1640 supplemented with 2 mM L-glutamine, 100 units/ml penicillin, 100 μg/ml streptomycin, and 5% FBS.
(§2) Treatment of primary macrophages and RAW 264.7 cells. Primary macrophages (1.5×10^5 cells/well) and RAW 264.7 (4×10^4 cells/well) cells were grown in 96-well plates (nitrite assay), or 6-well plates (2×10^6 cells/well) for measurement of iNOS and COX-2 expression. Following 3 h incubation, at 37 C, 5% CO2 (macrophages were allowed to attach) cells were stimulated with LPS (0.5 μg/ml) and IFN-γ (100 U/ml) in the absence or presence of various concentrations of ILK inhibitors (all treatments were replicated six times). Cells were incubated for an additional 24 h, and cell free culture supernatants from each well were collected for NO and cytokine determination. The remaining cells were stained with crystal violet to determine effect of the inhibitors on cell survival.
(§3) NO production. Following stimulation, the production of NO was determined by assaying culture supernatants for NO2^−, a stable reaction product of NO with molecular oxygen. Briefly, 100 μl of culture supernatant was reacted with an equal volume of Griess reagent at room temperature for 10 min. The absorbance at 550 nm was determined. All measurements were performed six times. The concentration of NO2^−was calculated by comparison with a standard curve prepared using NaNO2.
(§4) Effects of ILK inhibitors on LPS-IFN-γ-induced NO release. […] […] To compare the effect of the compounds across three different cell types, the NO release for each cell type was expressed relative to DMSO treated cells. […] For example, macrophages from Balb/c and C57BL/6 mice responded similarly to the treatment with the compounds.

[2] = system: C57BL/6 cells (primary peritoneal macrophages); test: LPS-IFN-γ-induced macrophage NO production (Griess nitrite assay), C57BL/6 cells; assay type: cell-based, mouse; conditions: 50 μM, 24 h; for NO release (%): relative to DMSO treated cells; for inhibition at 50 µM: Mus musculus, Peritoneal macrophage
Method: as §1, §2, §3, §4

RAW 264.7 cells = test: LPS-IFN-γ-induced macrophage NO production (Griess nitrite assay), RAW 264.7 cells; assay type: cell-based, murine; conditions: 24 h; for NO release (%): 50 μM, relative to DMSO treated cells; for inhibition at 50 µM: Mus musculus, RAW264.7, 50 μM
Method: RAW 264.7 cells. RAW 264.7 cells, a murine macrophage cell line, were obtained from American Type Culture Collection (ATCC, Manassas, Va.) and cultured in DMEM supplemented with 10% FCS. Each treatment was performed in triplicate wells. RAW 264.7 cells (Balb/c background) produce a significant amount of nitric oxide upon treatment with IFN-γ alone, but require LPS for full activation. This property makes their behavior more like that of normal macrophages obtained from commonly used strains of mice.
as §2, with “Primary macrophages (1.5×10^5 cells/well) and RAW 264.7 (4×10^4 cells/well) cells were grown in 96-well plates (nitrite assay), or 6-well plates (2×10^6 cells/well) for measurement of iNOS and COX-2 expression.” left out
as §3
Effects of ILK inhibitors on LPS-IFN-γ-induced NO release. […] […] To compare the effect of the compounds across three different cell types, the NO release for each cell type was expressed relative to DMSO treated cells.

[3] = system: BALB/c cells (primary peritoneal macrophages); test: Cell survival by crystal violet staining, BALB/c cells; assay type: cell-based; conditions: 24 h, 50 μM
Method: as §2, with “Primary macrophages (1.5×10^5 cells/well) and RAW 264.7 (4×10^4 cells/well) cells were grown in 96-well plates (nitrite assay), or 6-well plates (2×10^6 cells/well) for measurement of iNOS and COX-2 expression.” left out
(§5) Effect of ILK Inhibitors on suppression of NO production and cell survival. Twenty-four hours following treatment with the ILK inhibitors, aliquots from the cell-free supernatants were assayed for NO and IL-6 release. Surviving cells were stained and fixed (crystal violet 0.05% in 20% ethanol), to determine if the decrease in NO production was related to a decrease in cell number due to toxicity of the compounds.

[4] = system: C57BL/6 cells (primary peritoneal macrophages); test: Cell survival by crystal violet staining, C57BL/6 cells; assay type: cell-based; conditions: 50 μM, 24 h, DMSO-treated = 100%
Method: as §2, with “Primary macrophages (1.5×10^5 cells/well) and RAW 264.7 (4×10^4 cells/well) cells were grown in 96-well plates (nitrite assay), or 6-well plates (2×10^6 cells/well) for measurement of iNOS and COX-2 expression.” left out
as §5

iNOS = iNOS protein expression in LPS-IFN-γ stimulated macrophages (western blot); assay type: cell-based, murine; conditions: LPS-IFN-γ stimulated macrophages, western blot
Method: Western blot analysis. After incubation with the indicated stimuli in the presence of ILK inhibitors, cells (duplicate samples, 2×10^6cell/6-wells plate) were washed in PBS and lysed on ice in 60 μl of lysis buffer. The protein content of each sample was determined using the Bradford protein assay kit (Bio-Rad, Richmond, Calif.). Absorbance was measured at 750 nm with a Beckman DU530 spectrophotometer (Palo Alto, Calif.). Proteins were mixed with […] sample buffer. Following separation of proteins by SDS-PAGE, using 8% bis-acrylamide in the separation gel, the proteins were transferred from the gels onto PVDF membranes using a MiniProtean III Cell (Bio-Rad), at 100 V for 1.5 h. Equal amounts of protein (5 μg) were loaded onto SDS-PAGE gels and examined by Western blot analysis with anti-Actin, anti-iNOS, anti-COX-2 murine monoclonal antibodies according to the manufacturers specifications (Transduction Laboratories). Primary Abs, in 5% blocking buffer (5% NFM/TTBS), were incubated with blots 2 h or overnight at 4° C., followed by incubation with peroxidase-conjugated secondary antibody. Chemiluminescence substrates were used to reveal positive bands. The bands were exposed on x-ray films. […] The Multi-Analyst/PC system from Biorad is being used to quantitate the bands of the expressed protein on the film. […] White light is chosen as the selected light source, thus the signal strength is measured in OD (optic density) units. […]
Effects of ILK inhibitors on the LPS-IFN-γ-induced iNOS and COX-2 expression NO production requires that iNOS be enzymatically activity, therefore experiments were performed to examine whether the inhibitory effect of ILK inhibitors was mediated by […] iNOS protein synthesis or effects on the activity of existing enzyme. Stimulated cells were treated with ILK inhibitors (25 μM), and lysed 16 h later and a western blot analysis was performed to quantitate iNOS protein expression. […]

Compound	NO release (%) [1]	inhibition at 50 µM [1]	NO release (%) [2]	inhibition at 50 µM [2]	NO release (%) (RAW 264.7 cells)	inhibition at 50 µM (RAW 264.7 cells)	Survival (%) ([3]; BALB/c, mouse)	Survival (%) [4]	iNOS protein expression (in words) (iNOS)	Survival (%) ([3]; BALB/c cells, DMSO-treated = 100%)
N=C(N)N/N=C/c1ccc(Cl)cc1Cl [KP-16735]	−4.2%	106%	−7.0%	114%	20.4%	73%	73%	49%	significantly inhibited the expression of iNOS protein	
Oc1ccc2c(c1)CC1NCCc3cc(O)c(O)c-2c31 (stereo not drawn) [KP-21849, 5,6,6a,7-Tetrahydro-4H-dibenzo[de,g]quinoline-1,2,9-triol]	−4.2%	110%	−8.0%	118%	−0.1%	100%		44%	significantly inhibited the expression of iNOS protein	41%

— patent publication US20050220779A1, “Integrin linked kinase modulation of macrophage activation” (priority 2001, published 2005)
